Measured values as given in patent publication US5173504A, “Bacteriochlorophyll-a derivatives useful in photodynamic therapy” (Health Research, Inc., priority 1991, dated 1992).

Experiments:
[1] = Beems et al., Photochemistry and Photobiology (1987); cited from earlier work
[2] = light absorption of bchla; format: physicochemical
Description: Bchla is essentially identical to the chlorophyll-a of higher plants except that ring B is in the dihydro form and the vinyl group in ring A is converted to an acetyl group. The wavelength absorption maximum of bchla is about 780 nm and the extinction coefficient in this region is quite high (E780= 75,000). This long wavelength absorption is advantageous because light penetrates tissues 2-3 times more effectively at a wavelength nearly 800 nm versus lower wavelengths, e.g., 630 nm.
Bacteriochlorophyll-a, obtained at >90% purity from Porphyrin Products (Logan, UT) was dissolved at a concentration of 5 mg/ml in Tween-80 (Sigma) by stirring for several hours or overnight. The resulting solution was mixed with 9 volumes of Hank's buffer solution with agitation until all of the detergent solution was dissolved. Any remaining particulate matter is removed by filtration and the concentration of the final solution is determined spectrophotometrically using a 1:100 dilution in distilled water (OD780= 87.3 for 1 mg/ml of concentrate). In general, if the initial solution of bchla is conducted carefully, the resulting formulation has a concentration of bchla of 0.5 mg/ml.

stability of bchla = format: physicochemical
Description: Bchla is readily obtained by extraction from bacterial sources, and is available commercially from Porphyrin Products, Logan, UT.

SMT-F tumors = assay: tumor response to photodynamic treatment in mice transplanted with SMT-F tumors; format: in vivo, DBA2/HaD mice
Experimental: DBA2/HaD mice were transplanted with SMT-F tumors. When the subcutaneous tumors reached 4.5-5.5 mm in diameter, the mice, in groups of five, were injected intravenously with the bchla solution of Example 1 in doses of 5-30 mg/kg. At a time 1 hour-5 days later, the tumor, previously shaved and depiliated, plus a margin of 2-3 mm was exposed to radiation of a wavelength in the range 630-800 nm using a Spectraphysics argon dye laser with Exciton LDS751 dye, tunable over the 700-800 nm range or a diode laser--e.g., Spectra Diode emitting in the 750-850 nm range or a Xenon arc lamp filtered with an interference filter to pass 90% of the 700 nm light ±60 nm at dose rates of 75-150 mw/cm^2. When the Xenon system was used, mild hyperthermia resulted (42° C. at 160 mW/cm^2). It is not known whether this temperature rise acts synergistically with bchla as has been shown with HpD and its active fraction.
Tumor response is shown in the table of FIG. 1 for the seventh day after light treatment which indicates regression, and at a time point at least 30 days after light treatment, which would indicate cure, if there had been no regrowth.

[3] = cutaneous photosensitivity: response of the foot of the treated mice; format: in vivo; settings: FIG. 3
Experimental: One of the undesirable side effects of photodynamic therapy using certain compounds is cutaneous photosensitivity unrelated to the target biological substrate. Accordingly, the effect of the treatment on the photosensitivity of the foot of the treated mice was measured. The response of the foot was measured as erythema and/or edema (or loss of skin or further damage).

[4] = uptake and clearance in tumor (extraction, HPLC); format: in vivo, DBA/2 Ha Mice
Experimental: (§1) Uptake and clearance of bchla in tumor and liver were measured by extraction of the tumor or liver tissue with 1:1MeOH:CH2 Cl2, followed by HPLC analysis.

[5] = uptake and clearance in liver (extraction, HPLC); format: in vivo, DBA/2 Ha Mice
Experimental: as §1

[6] = system: tumors approximately 1 cm in depth; assay: light penetration: necrotic depth in tumors; format: in vivo; settings: 20 mg/kg, irradiation after 1 hour, 270 J/cm^2 at 780 nm; histology the day following
Experimental: Comparison was made using bchla at 20 mg/kg with irradiation after 1 hour at 270 J/cm^2 at 780 nm, and DHE at 5 mg/kg after 1 hour at 270 J/cm^2 at 630 nm. Animals with tumors approximately 1 cm in depth were used in the comparison. Histological sections were obtained the day following treatment, fixed and stained.

CCC1C2=Cc3c(C)c4c5[n]3[Mg][n]3c(c(C)c(C(C)=O)c3=CC(=N2)C1C)=CC1=NC(=C5C(C(=O)OC)C4=O)C(CCC(=O)O)C1C (stereo not shown) [bacteriochloro-phyllin-a]
water solubility compared to bacteriochlorophyll-a [1]: enhanced water solubility

CCC1C2=Cc3c(C)c4c5[n]3[Mg][n]3c(c(C)c(C(C)=O)c3=CC(=N2)C1C)=CC1=NC(=C5C(C(=O)OC)C4=O)C(CCC(=O)OCC=C(C)CCCC(C)CCCC(C)CCCC(C)C)C1C (stereo not shown) [bchla, Bacteriochlorophyll-a]
wavelength absorption maximum [2]: about 780 nm | extinction coefficient (E780) ([2]; 780 nm): 75,000 | OD780 ([2]; for 1 mg/ml of concentrate, Tween-80/Hank's buffer formulation, measured at 1:100 dilution in distilled water): 87.3 | oxidation stability (stability of bchla): readily oxidized, especially in the presence of light | stability in vivo (stability of bchla; in vivo): sufficiently stable in vivo to be an effective phototherapeutic agent | loss of magnesium ion in dilute acid (stability of bchla; presence of dilute acid): the magnesium ion is readily removed in the presence of dilute acid | tumor response (SMT-F tumors; 5 mg/kg i.v., irradiated after 2 hours, 670-790 nm range): good response | tumor response (SMT-F tumors; 10 mg/kg i.v., irradiated 24 hours after injection, 680-780 nm): good response | sensitivity of the tumor and the skin of the foot over time [3]: the sensitivity of the tumor and the skin of the foot declined concomitantly | composition of material in tumor ([4]; 24 hours after injection): demetallized but still contains phytyl | composition of material in tumor ([4]; 48 hours after injection): mainly material without phytyl and without Mg | time of partial conversion to bacteriopheophytin in tumor ([4]; tumor): ≥ 24 h | time of partial conversion to bacteriopheophytin in liver [5]: 2 h | necrotic depth [6]: approximately 9 mm

CCC1c2cc3[nH]c4c(c3C)C(=O)C(C(=O)OC)c4c3nc(cc4[nH]c(cc(n2)C1C)c(C(C)=O)c4C)C(C)C3CCC(=O)O (stereo not shown) [bacteriochlorin-a]
water solubility compared to bacteriochlorophyll-a [1]: enhanced water solubility
